This note sets out measurements from patent US7514426B2, “Substituted imidazol[1,5-A][1,2,4]triazolo[1,5-D][1,4]benzodiazepine derivatives” (priority 2004, dated 2009).

Common to all, as to assay: [3H]flumazenil competition binding, HEK293 cell membranes
The target in experiment [1] is T1, human GABA A receptor α5βγ2 (Homo sapiens, UniProt P18507+P31644).
T1 construct: expressed in transfected cells; host or cells: HEK293
As for the experimental part:
(§1) The affinity of compounds at GABA A receptor subtypes was measured by competition for [^3H]flumazenil (85 Ci/mmol; Roche) binding to HEK293 cells expressing rat (stably transfected) or human (transiently transfected) receptors of composition α1β3γ2, α2β3γ2, α3β3γ2 and α5βγ2.
(§2) Cell pellets were suspended in Krebs-tris buffer (4.8 mM KCl, 1.2 mM CaCl2, 1.2 mM MgCl2, 120 mM NaCl, 15 mM Tris; pH 7.5; binding assay buffer), homogenized by polytron for ca. 20 sec on ice and centrifuged for 60 min at 4° C. (50000 g; Sorvall, rotor: SM24=20000 rpm). The cell pellets were resuspended in Krebs-tris buffer and homogenized by polytron for ca. 15 sec on ice. Protein was measured (Bradford method, Bio-Rad) and aliquots of 1 mL were prepared and stored at −80° C.
(§3) Radioligand binding assays were carried out in a volume of 200 μL (96-well plates) which contained 100 μL of cell membranes, [^3H]flumazenil at a concentration of 1 nM for α1, α2, α3 subunits and 0.5 nM for α5 subunits and the test compound in the range of 10^−10-3×10^−6 M. Nonspecific binding was defined by 10^−5 M diazepam and typically represented less than 5% of the total binding. Assays were incubated to equilibrium for 1 hour at 4° C. and harvested onto GF/C uni-filters (Packard) by filtration using a Packard harvester and washing with ice-cold wash buffer (50 mM Tris; pH 7.5). After drying, filter-retained radioactivity was detected by liquid scintillation counting. Ki values were calculated using Excel-Fit (Microsoft) and are the means of two determinations.

For experiment [2], the target named is T2, human GABA A receptor α3β3γ2 (Homo sapiens, UniProt P18507+P34903).
T2 construct: expressed in transfected cells; host or cells: HEK293
As for the experimental part:
as §1, §2, §3

The target in experiment [3] is T3, human GABA A receptor α2β3γ2 (Homo sapiens, UniProt P18507+P47869).
T3 construct: expressed in transfected cells; host or cells: HEK293
As for the experimental part:
as §1, §2, §3

Experiment [4] has as its target T4, human GABA A receptor α1β3γ2 (Homo sapiens, UniProt P14867+P18507).
T4 construct: expressed in transfected cells; host or cells: HEK293
As for the experimental part: as §1, §2, §3

Setting [5] is: human α2β3γ2, transiently transfected HEK293, 1 nM [3H]flumazenil, mean of two determinations, read-out: Ki[nM] hα2.
The mark [6] stands for this setting: human α3β3γ2, transiently transfected HEK293, 1 nM [3H]flumazenil, mean of two determinations, read-out: Ki[nM] hα3.
The mark [7] stands for this setting: human α1β3γ2, transiently transfected HEK293, 1 nM [3H]flumazenil, mean of two determinations, read-out: Ki[nM] hα1.
[8] abbreviates: human α5βγ2, transiently transfected HEK293, 0.5 nM [3H]flumazenil, mean of two determinations, read-out: Ki[nM] hα5.

Where two headings read alike, the source gives them in different places.

As a reminder, the Ki is the equilibrium dissociation constant of an inhibitor or competing ligand from its target.

On to `CCC(F)(F)c1ncn2c1Cn1ncnc1-c1cc(Br)ccc1-2` [Example 19, 3-Bromo-10-(1,1-difluoro-propyl)-9H-imidazo[1,5-a][1,2,4]triazolo[1,5-d][1,4]benzodiazepine], for which the Ki in experiment [1] came to 6.4 nM; in experiment [2], 77.2 nM; in experiment [3] (setting [5]), 147 nM; in experiment [4] it was 32.9 nM.

As for `FCc1ncn2c1Cn1ncnc1-c1cc(F)ccc1-2` [Example 3, 3-Fluoro-10-fluoromethyl-9H-imidazo[1,5-a][1,2,4]triazolo[1,5-d][1,4]benzodiazepine], the inhibition constant (Ki) in experiment [1] stood at 9.1 nM; in experiment [2], 26.2 nM; in experiment [3], 25.4 nM; in experiment [4], 49.9 nM.

Take `FCc1ncn2c1Cn1ncnc1-c1cc(Cl)ccc1-2` [Example 1, 3-Chloro-10-fluoromethyl-9H-imidazo[1,5-a][1,2,4]triazolo[1,5-d][1,4]benzodiazepine]: the Ki in experiment [1] stood at 9.4 nM; in experiment [2] it was 40 nM; in experiment [3], 67 nM; in experiment [4], 59.1 nM.

On to `C#Cc1ccc2c(c1)-c1ncnn1Cc1c(C(F)F)ncn1-2` [Example 12, 10-Difluoromethyl-3-ethynyl-9H-imidazo[1,5-a][1,2,4]triazolo[1,5-d][1,4]benzodiazepine], for which the inhibition constant (Ki) in experiment [1] was 16.9 nM; in experiment [2] (setting [6]), 512 nM; in experiment [3] (setting [5]), 416 nM; in experiment [4] (setting [7]) it was 1460 nM.

On to `Cc1nc2n(n1)Cc1c(CF)ncn1-c1ccc(Cl)cc1-2` [Example 20, 3-Chloro-10-fluoromethyl-6-methyl-9H-imidazo[1,5-a][1,2,4]triazolo[1,5-d][1,4]benzodiazepine], for which the Ki in experiment [1] worked out at 2.5 nM; in experiment [2] it was 117 nM; in experiment [3], 181 nM; in experiment [4], 50.1 nM.

Regarding `FC(F)c1ncn2c1Cn1ncnc1-c1ccccc1-2` [Example 16, 10-Difluoromethyl-9H-imidazo[1,5-a][1,2,4]triazolo[1,5-d][1,4]benzodiazepine], the Ki in experiment [1] was found to be 1.6 nM; in experiment [2], 10.5 nM; in experiment [3], 13.9 nM; in experiment [4], 28.3 nM.

As for `FC(F)c1ncn2c1Cn1ncnc1-c1cc(Br)ccc1-2` [Example 7, 3-Bromo-10-difluoromethyl-9H-imidazo[1,5-a][1,2,4]triazolo[1,5-d][1,4]benzodiazepine], the Ki in experiment [1] (setting [8]) is 4.6 nM; in experiment [2] (setting [6]), 79.6 nM; in experiment [3] (setting [5]), 185 nM; in experiment [4] (setting [7]), 174 nM.

For `FCc1ncn2c1Cn1ncnc1-c1cc(C3CC3)ccc1-2` [Example 8, 3-Cyclopropyl-10-fluoromethyl-9H-imidazo[1,5-a][1,2,4]triazolo[1,5-d][1,4]benzodiazepine], the Ki in experiment [1] is 14.7 nM; in experiment [2], 270 nM; in experiment [3], 276 nM; in experiment [4] it was 272 nM.

For `FCc1ncn2c1Cn1ncnc1-c1cc(Br)ccc1-2` [Example 6, 3-Bromo-10-fluoromethyl-9H-imidazo[1,5-a][1,2,4]triazolo[1,5-d][1,4]benzodiazepine], the inhibition constant Ki in experiment [1] came out at 8.7 nM; in experiment [2], 108 nM; in experiment [3] it was 261 nM; in experiment [4], 215 nM.

Regarding `Fc1ccc2c(c1)-c1ncnn1Cc1c(C(F)F)ncn1-2` [Example 4, 3-Fluoro-10-difluoromethyl-9H-imidazo[1,5-a][1,2,4]triazolo[1,5-d][1,4]benzodiazepine], the Ki in experiment [1] amounted to 6.8 nM; in experiment [2] it was 15.6 nM; in experiment [3], 14.4 nM; in experiment [4], 34.4 nM.

Take `FC(F)c1ncn2c1Cn1ncnc1-c1cc(N3CCOCC3)ccc1-2` [Example 17, 3-Morpholin-4-yl-10-difluoromethyl-9H-imidazo[1,5-a][1,2,4]triazolo[1,5-d][1,4]benzodiazepine]: the Ki was 272 nM in experiment [1] (setting [8]), greater than 3160 nM in experiment [2] (setting [6]), greater than 3160 nM in experiment [3] (setting [5]) and 1870 nM in experiment [4] (setting [7]).

As to `CCC(F)c1ncn2c1Cn1ncnc1-c1cc(Br)ccc1-2` (stereo not drawn) [Example 18, 3-Bromo-10-(1-fluoro-propyl)-9H-imidazo[1,5-a][1,2,4]triazolo[1,5-d][1,4]benzodiazepine], the Ki in experiment [1] is 37.5 nM; in experiment [2] (setting [6]), 650 nM; in experiment [3] (setting [5]), 764 nM; in experiment [4] (setting [7]) it was 787 nM.

In the case of `CC(F)(F)c1ncn2c1Cn1ncnc1-c1cc(F)ccc1-2` [Example 14, 10-(1,1-Difluoro-ethyl)-3-fluoro-9H-imidazo[1,5-a][1,2,4]triazolo[1,5-d][1,4]benzodiazepine], the Ki in experiment [1] amounted to 26.6 nM; in experiment [2], 73.5 nM; in experiment [3], 98.8 nM; in experiment [4] (setting [7]) it was 163 nM.

In the case of `N#Cc1ccc2c(c1)-c1ncnn1Cc1c(C(F)F)ncn1-2` [Example 13, 3-Cyano-10-difluoromethyl-9H-imidazo[1,5-a][1,2,4]triazolo[1,5-d][1,4]benzodiazepine], the Ki came to 16.5 nM in experiment [1], 106 nM in experiment [2], 246 nM in experiment [3] and 246 nM in experiment [4].

`FC(F)c1ncn2c1Cn1ncnc1-c1cc(Cc3ccccc3)ccc1-2` [Example 11, 3-Benzyl-10-difluoromethyl-9H-imidazo[1,5-a][1,2,4]triazolo[1,5-d][1,4]benzodiazepine]: the inhibition constant Ki in experiment [1] was found to be 26.4 nM; in experiment [2] (setting [6]), 488 nM; in experiment [3] (setting [5]), 904 nM; in experiment [4] (setting [7]), 455 nM.

In the case of `CCc1ccc2c(c1)-c1ncnn1Cc1c(C(F)F)ncn1-2` [Example 10, 10-Difluoromethyl-3-ethyl-9H-imidazo[1,5-a][1,2,4]triazolo[1,5-d][1,4]benzodiazepine], the Ki in experiment [1] turned out to be 31.7 nM; in experiment [2] (setting [6]), 480 nM; in experiment [3] (setting [5]), 624 nM; in experiment [4] (setting [7]), 272 nM.

With `Fc1ccc2c(c1)-c1ncnn1Cc1c(C(F)(F)F)ncn1-2` [Example 5, 3-Fluoro-10-trifluoromethyl-9H-imidazo[1,5-a][1,2,4]triazolo[1,5-d][1,4]benzodiazepine], the inhibition constant Ki in experiment [1] was determined as 7 nM; in experiment [2] it was 27.7 nM; in experiment [3] it was 23.9 nM; in experiment [4], 39 nM.

On to `FC(F)c1ncn2c1Cn1ncnc1-c1cc(Cl)ccc1-2` [Example 2, 3-Chloro-10-difluoromethyl-9H-imidazo[1,5-a][1,2,4]triazolo[1,5-d][1,4]benzodiazepine], for which the Ki in experiment [1] worked out at 5.6 nM; in experiment [2], 47.9 nM; in experiment [3] it was 81.3 nM; in experiment [4], 52.9 nM.

As for `COc1ccc(-c2nc3n(n2)Cc2c(CF)ncn2-c2ccc(Cl)cc2-3)cc1OC` [Example 21, 3-Chloro-6-(3,4-dimethoxyphenyl)-10-fluoromethyl-9H-imidazo[1,5-a][1,2,4]triazolo[1,5-d][1,4]benzodiazepine], the Ki in experiment [1] (setting [8]) is 152 nM; in experiment [2] (setting [6]), greater than 3160 nM; in experiment [3] (setting [5]), greater than 3160 nM; in experiment [4] (setting [7]) it was greater than 3160 nM.

Consider `FC(F)c1ncn2c1Cn1ncnc1-c1cc(C3CC3)ccc1-2` [Example 9, 3-Cyclopropyl-10-difluoromethyl-9H-imidazo[1,5-a][1,2,4]triazolo[1,5-d][1,4]benzodiazepine], for which the Ki was 13.3 nM in experiment [1], 192 nM in experiment [2] (setting [6]), 160 nM in experiment [3] (setting [5]) and 216 nM in experiment [4] (setting [7]).

With `CCC(F)(F)c1ncn2c1Cn1ncnc1-c1cc(F)ccc1-2` [Example 15, 10-(1,1-Difluoro-propyl)-3-fluoro-9H-imidazo[1,5-a][1,2,4]triazolo[1,5-d][1,4]benzodiazepine], the Ki in experiment [1] is 3.2 nM; in experiment [2] it was 8.9 nM; in experiment [3], 11.3 nM; in experiment [4], 15 nM.
